The target of the test is Tyrosine-protein kinase SYK (Homo sapiens, UniProt P43405). The experiment in a line: Inhibition of spleen tyrosine kinase (unknown origin).

Take `CNc1nc(NCCN)ncc1C(N)=O`: for the setting “read-out: IC50”, the IC50 was above 10 µM.

On to `CNC(=O)c1cnc(NCCN)nc1Nc1cccc(C(F)(F)F)c1`, for which the half-inhibitory concentration (IC50) (read-out: IC50) is above 10 µM. As to `CN(C)C(=O)c1cnc(NCCN)nc1Nc1cccc(C(F)(F)F)c1`, the half-maximal inhibitory concentration (IC50) (read-out: IC50) is above 10 µM.

Regarding `COc1ccc2c(c1)c(/C=C1\C(=O)Nc3ccc(S(=O)(=O)N(C)C)cc31)cn2C`, the IC50 entry was “Not Active”.

With `CN(C)CCN(C)c1ncc(C(N)=O)c(Nc2cccc(C(F)(F)F)c2)n1`, under “read-out: IC50”, the half-maximal inhibitory concentration (IC50) was above 10 µM.

The values are drawn from ChEMBL document CHEMBL2424544, “Inhibitors of switch kinase 'spleen tyrosine kinase' in inflammation and immune-mediated disorders: a review” (Eur J Med Chem, 2013).
